How the values were obtained:
Assay in all cases: Phage-Mediated Detection of Staphylococcus aureus
Type in all cases: cell-based
[1] = test system: Staphylococcus aureus strain BAA-2094 (MRSA, ATCC)
Method: (§1) Samples of methicillin-resistant S. aureus (MRSA) were primed by adding 135 μl of samples containing S. aureus to rich media. The rich media included sub-inhibitory antibiotic (cefoxitin) to allow for specific enrichment and induction of MRSA. Samples were incubated in rich media for 1-2 hours. Following the priming of the samples, additional cefoxitin was added to the media and samples were incubated for an additional 2 hours. Staphylococcus aureus-specific bacteriophage NanoLuc Indicator phage was added to the samples and incubated for 2 hours. Lysis buffer and NANO-GLO® reagent were added. Following 5 minutes of incubation, measurements of bioluminescence were taken using a GLOMAX® 96 instrument. A signal/background ratio ≥750 RLU indicated positive detection of S. aureus. A signal/background ratio of <750 RLU indicated the sample was negative for S. aureus.

[2] = test system: Staphylococcus aureus strain AR0476 (MRSA, CDC Panel)
Method: as §1

[3] = test system: Staphylococcus aureus strain AR0474 (MRSA, CDC Panel)
Method: as §1

[4] = test system: Staphylococcus aureus strain 12600 (MSSA, ATCC)
Method: as §1

[5] = test system: Staphylococcus aureus strain AR0470 (MRSA, CDC Panel)
Method: as §1

[6] = test system: Staphylococcus aureus strain AR0469 (MRSA, CDC Panel)
Method: as §1

[7] = test system: Staphylococcus aureus strain AR0473 (MRSA, CDC Panel)
Method: as §1

[8] = test system: Staphylococcus aureus strain AR0477 (MRSA, CDC Panel)
Method: as §1

[9] = test system: Staphylococcus aureus strain AR0488 (MSSA, CDC Panel)
Method: as §1

[10] = test system: Staphylococcus aureus strain AR0487 (MSSA, CDC Panel)
Method: as §1

[11] = test system: Staphylococcus aureus strain AR0468 (MRSA, CDC Panel)
Method: as §1

[12] = test system: Staphylococcus aureus strain AR0479 (MRSA, CDC Panel)
Method: as §1

[13] = test system: Staphylococcus aureus strain AR0490 (MSSA, CDC Panel)
Method: as §1

CO[C@@]1(NC(=O)Cc2cccs2)C(=O)N2C(C(=O)O)=C(COC(N)=O)CS[C@@H]21 [Cefoxitin, cefoxitin] was tested, and the “Cefoxitin Concentration 1 ug/mL (indicator phage luminescence signal)” value (from here on “Cefoxitin Concentration 1 ug/mL”) ([1]; detected CFU 147, cefoxitin 1 ug/mL) was 252900 RLU, the “Cefoxitin Concentration 2 ug/mL (indicator phage luminescence signal)” value (from here on “Cefoxitin Concentration 2 ug/mL”) ([1]; detected CFU 147, cefoxitin 2 ug/mL) was 96700 RLU and the “Cefoxitin Concentration 4 ug/mL (indicator phage luminescence signal)” value (from here on “Cefoxitin Concentration 4 ug/mL”) ([1]; detected CFU 147, cefoxitin 4 ug/mL) was 1971 RLU. For the same compound, the “Cefoxitin Concentration 1 ug/mL” value ([2]; detected CFU 95, cefoxitin 1 ug/mL) was 245000 RLU, the “Cefoxitin Concentration 2 ug/mL” value ([2]; detected CFU 95, cefoxitin 2 ug/mL) was 52910 RLU and the “Cefoxitin Concentration 4 ug/mL” value ([2]; detected CFU 95, cefoxitin 4 ug/mL) was 21 RLU. For the same compound, the “Cefoxitin Concentration 1 ug/mL” value ([3]; detected CFU 477, cefoxitin 1 ug/mL) was 3449 RLU, the “Cefoxitin Concentration 2 ug/mL” value ([3]; detected CFU 477, cefoxitin 2 ug/mL) was 2235 RLU and the “Cefoxitin Concentration 4 ug/mL” value ([3]; detected CFU 477, cefoxitin 4 ug/mL) was 1684 RLU. For the same compound, the “Cefoxitin Concentration 1.8 ug/mL (indicator phage luminescence signal)” value ([4]; detected CFU 59, cefoxitin 1.8 ug/mL) was 508 RLU, the “Cefoxitin Concentration 1 ug/mL” value ([4]; detected CFU 406, cefoxitin 1 ug/mL) was 18310 RLU and the “Cefoxitin Concentration 2 ug/mL” value ([4]; detected CFU 406, cefoxitin 2 ug/mL) was 178 RLU. The “Cefoxitin Concentration 4 ug/mL” value ([4]; detected CFU 406, cefoxitin 4 ug/mL) was 196 RLU, the “Cefoxitin Concentration 1 ug/mL” value ([5]; detected CFU 215, cefoxitin 1 ug/mL) was 3502 RLU and the “Cefoxitin Concentration 2 ug/mL” value ([5]; detected CFU 215, cefoxitin 2 ug/mL) was 1846 RLU. For the same compound, the “Cefoxitin Concentration 4 ug/mL” value ([5]; detected CFU 215, cefoxitin 4 ug/mL) was 179 RLU, the “Cefoxitin Concentration 1 ug/mL” value ([6]; detected CFU 523, cefoxitin 1 ug/mL) was 35110 RLU and the “Cefoxitin Concentration 2 ug/mL” value ([6]; detected CFU 523, cefoxitin 2 ug/mL) was 22030 RLU. The “Cefoxitin Concentration 4 ug/mL” value ([6]; detected CFU 523, cefoxitin 4 ug/mL) was 9007 RLU, the “Cefoxitin Concentration 1 ug/mL” value ([7]; detected CFU 219, cefoxitin 1 ug/mL) was 60000 RLU and the “Cefoxitin Concentration 2 ug/mL” value ([7]; detected CFU 219, cefoxitin 2 ug/mL) was 17500 RLU. For the same compound, the “Cefoxitin Concentration 4 ug/mL” value ([7]; detected CFU 219, cefoxitin 4 ug/mL) was 338 RLU, the “Cefoxitin Concentration 1 ug/mL” value ([8]; detected CFU 471, cefoxitin 1 ug/mL) was 478000 RLU and the “Cefoxitin Concentration 2 ug/mL” value ([8]; detected CFU 471, cefoxitin 2 ug/mL) was 95970 RLU. The “Cefoxitin Concentration 4 ug/mL” value ([8]; detected CFU 471, cefoxitin 4 ug/mL) was 4068 RLU, the “Cefoxitin Concentration 1 ug/mL” value ([9]; detected CFU 151, cefoxitin 1 ug/mL) was 15430 RLU and the “Cefoxitin Concentration 2 ug/mL” value ([9]; detected CFU 151, cefoxitin 2 ug/mL) was 207 RLU. The “Cefoxitin Concentration 4 ug/mL” value ([9]; detected CFU 151, cefoxitin 4 ug/mL) was 197 RLU, the “Cefoxitin Concentration 1 ug/mL” value ([10]; detected CFU 221, cefoxitin 1 ug/mL) was 10420 RLU and the “Cefoxitin Concentration 2 ug/mL” value ([10]; detected CFU 221, cefoxitin 2 ug/mL) was 167 RLU. For the same compound, the “Cefoxitin Concentration 4 ug/mL” value ([10]; detected CFU 221, cefoxitin 4 ug/mL) was 188 RLU, the “Cefoxitin Concentration 1 ug/mL” value ([11]; detected CFU 169, cefoxitin 1 ug/mL) was 10330 RLU and the “Cefoxitin Concentration 2 ug/mL” value ([11]; detected CFU 169, cefoxitin 2 ug/mL) was 10070 RLU. For the same compound, the “Cefoxitin Concentration 4 ug/mL” value ([11]; detected CFU 169, cefoxitin 4 ug/mL) was 5002 RLU, the “Cefoxitin Concentration 1 ug/mL” value ([12]; detected CFU 52, cefoxitin 1 ug/mL) was 51560 RLU and the “Cefoxitin Concentration 2 ug/mL” value ([12]; detected CFU 52, cefoxitin 2 ug/mL) was 34730 RLU. For the same compound, the “Cefoxitin Concentration 4 ug/mL” value ([12]; detected CFU 52, cefoxitin 4 ug/mL) was 6803 RLU, the “Cefoxitin Concentration 1 ug/mL” value ([13]; detected CFU 940, cefoxitin 1 ug/mL) was 40620 RLU and the “Cefoxitin Concentration 2 ug/mL” value ([13]; detected CFU 940, cefoxitin 2 ug/mL) was 254 RLU. For the same compound, the “Cefoxitin Concentration 4 ug/mL” value ([13]; detected CFU 940, cefoxitin 4 ug/mL) was 582 RLU.

From patent US20210079443A1, “INDICATOR BAC[…] SELECTING AND […] EFFICACY OF THERAPEUTICS AND METHODS FOR USING SAME” (priority 2018, published 2021)
